Source: EP3050886A1, “Fluorescent dyes and dye precursors” (Bürkert Werke GmbH, priority 2015, dated 2016)
Entries after “also recorded” stand apart in the source; their conditions may differ.

Key:
Pseudomonas aeruginosa = test: Bacteria staining test, fluorescence microscopy; type: cell-based; settings: for fluorescence of stained viable bacteria compared with 5-CFDA: viable P. aeruginosa; for staining of viable versus dead bacteria: viable or dead P. aeruginosa, Fig. 3c
Experimental: (§1) Escherichia coli (E. coli) (ATCC 8739) and Bacillus subtilis (B. subtilis) (ATCC 6633) strains were routinely grown in Luria Bertani (LB) broth or on LB agar plates for 18h at 37 °C. Waterborne environmental bacteria such as Enterobacter cloacae (E. cloacae), Chryseobacterium indologenes (C. indologenes), Pseudomonas aeruginosa (P. aeruginosa), and E. coli (EC18) were purchased from Eurofins™. Environmental bacteria were grown in LB broth or on casein-peptone soymeal-peptone agar plates for 18h at 37 °C.
(§2) For the staining tests, E. coli (ATCC 8739 or EC18), E. cloacae, C. indologenes, P. aeruginosa and B. subtilis were cultivated in Luria-Bertani (LB) broth until exponential phase at 37°C with shaking at 300 rpm revolutions per minutes (rpm). Bacteria were harvested and washed in sterile phosphate buffer saline solution (PBS) at pH […] by centrifugation at 10000 rpm for 3 min at room temperature (21 ± 2 °C). Then the bacteria were resuspended in PBS at a concentration of 1·10^9 bacteria/ml. Bacteria concentration was calculated according to the turbidity measure at 660 nm (A660nm=1 correspond to bacterial suspension at ∼ 5·10^8 bacteria/ ml).
(§3) Dead bacterial suspensions at 1·10^9 bacteria/ml (negative controls) of these five species of bacteria were prepared individually by addition of 20 µl of bleach containing 2.6 % active chlorine. Bacteria were treated with bleach solution for 15 min. Dead bacteria were washed twice in sterile PBS by centrifugation at 10000 rpm for 3 min at room temperature. The culturability of the negative controls was assessed by plating 100 µl of bacterial suspension onto LB agar or Caso agar and incubating the plates at 37 °C for 72 h.
(§4) Bacteria (100 µl suspension at 1·10^9 bacteria/ml) were stained with 10 µM or 15 µM of pro-fluorophore (5-CFDA, 5-PFDAE, 5-PFDAT, 5-PFDA, 5-COGDA, 5-POGDA or 5-POGAM) in 200 µl of PBS solution containing 0.6 % of glutaraldehyde. Bacteria were incubated at 37 °C for 10 - 60 min with pro-fluorophore in darkness. After bacterial staining, they were washed and resuspended in 100 µl of PBS as described above.
(§5) Staining of the bacterial suspension was observed under a fluorescent microscope. These bacteria were imaged with a Leica DM5500 microscope equipped with FITC filter. […] Images were collected with a 100x objective. Fluorescence intensity of stained bacterial suspension was also measured with FluoroLog®-3 (Horiba Jobin Yvon) spectrofluorometer equipped with sample stirring. Samples were placed in fluorescence grade quartz cuvette having a volume of 1 ml. The excitation wavelength used was 488 nm and emission wavelength used was 517 nm. The same experiment was repeated three times (n = 3).

[1] = tested on: Chryseobacterium indologenes; test: Bacteria staining test, fluorescence microscopy; type: cell-based; settings: for fluorescence of stained viable bacteria compared with 5-CFDA: viable C. indologenes; for staining of viable versus dead bacteria: viable or dead C. indologenes, Fig. 3b
Experimental: as §1, §2, §3, §4, §5

Enterobacter cloacae = test: Bacteria staining test, fluorescence microscopy; type: cell-based; settings: for fluorescence of stained viable bacteria compared with 5-CFDA: viable E. cloacae; for staining of viable versus dead bacteria: viable or dead E. cloacae, Fig. 3a
Experimental: as §1, §2, §3, §4, §5

[2] = tested on: Bacillus subtilis (B. subtilis) (ATCC 6633); test: Bacteria staining test, fluorescence microscopy; type: cell-based; settings: viable or dead B. subtilis, Fig. 3d
Experimental: as §1, §2, §3, §4, §5

E. coli (EC18) = test: Immunocapture of E. coli on beads and viability staining; type: cell-based, Escherichia coli; settings: 10 µM, 30 min at 37 °C, Trypan Blue as contrast agent
Description: In a further test, antibodies anti-EC18 pAB and pro-fluorophores (5-POGDA, 5-POGAM) were used to immobilize E. coli (EC18) on beads and to reveal the immobilized bacteria respectively. Immunocapture of E. coli on beads was done in order to concentrate the fluorescent signal in order to improve the detection of the viable cells. In these experiments, Protein G Sepharose beads coated with goat-anti-rabbit immunoglobulins were used.
Environmental E. coli (E18) were cultivated and re-suspended in PBS as previously described. E. coli (EC18) (100 µl of suspension at 1*10^9 bacteria/ml) were incubated with rabbit anti-EC18 polyclonal antibodies (anti-EC18 pAb) or pre-immune control rabbit serum without anti-EC18 antibodies (PI-pAb) (dilution 1/20) for 1 h at room temperature. This control rabbit serum (PI-pAb) was obtained from a non-immunized animal (Eurogentec). It was used as a negative control. Bacteria were washed three times in PBS by centrifugation at 10000 rpm for 3 min at room temperature.
Proteine G Sepharose 4 Fast Flow beads were washed three times in Milli-Q water and three times in PBS by centrifugation at 2000 rpm for 2 min at 4 °C. Then 10 µl of sedimented beads were incubated with 20 µg of secondary antibody goat-anti-rabbit immunoglobulin (Thermo Scientific Pierce, 31210) in 500 µl of PBS with 0.001% of NP40 for 1h at room temperature with gentle mixing on a wheel. […]

[3] = Short-term chemical stability (spontaneous fluorescence generation) in aqueous buffer; type: physicochemical; settings: for chemical stability in aqueous solution (in words): PBS solution containing 0.6 % glutaraldehyde, 37°C; for relative speed of spontaneous fluorescence generation (spontaneous hydrolysis): relative to 5-CFDA, 15 µM, PBS containing 0.6 % glutaraldehyde, pH ~7, 37°C, 0-60 min
Experimental: The short-term chemical stability of the pro-fluorophores of the present invention in an aqueous buffer was evaluated by fluorometric measurement analysis after several minutes of storage at 37°C.
Each pro-fluorophore (5-CFDA, 5-PFDAE, 5-PFDAT, 5-PFDA, 5-COGDA, 5-POGDA, 5-POGAM) was dissolved in dimethylsulfoxide (DMSO) in order to prepare a 10 mM stock solution. Short-term stability studies (0-60 min) were performed in the absence of light at 37°C. The pro-fluorophore stock solutions were diluted into a PBS solution containing 0.6 % of glutaraldehyde (pH ∼7). The pro-fuorophore final concentration was 15 µM. Samples were stored in a fluorescence grade quartz cuvette having a volume of 1 ml. Fluorescence emission spectra between 500 and 540 nm were recorded every 10 minutes. The excitation wavelength used was 488 nm. Fluorometric measurement were made with a FluoroLog®-3. (Horiba Jobin Yvon) spectrofluorometer equipped with sample stirring. The same experiment was repeated three times (n = 3).
Thus, the slope of the straight line corresponds to the speed of spontaneous fluorescence generation.

CCCNC(=O)c1ccc2c(c1)C(=O)OC21c2cc(F)c(OCOC(C)=O)cc2Oc2cc(OCOC(C)=O)c(F)cc21 [Example 5-POGAM, 2',7'-difluoro-3-oxo-5-(propylcarbamoyl)-3H-spiroisobenzofuran-1,9'-xanthene-3',6'-diyl diacetoxymethyl ether]
fluorescence of stained viable bacteria compared with 5-CFDA (Pseudomonas aeruginosa): brighter fluorescence than 5-CFDA stained bacteria | staining of viable versus dead bacteria (Pseudomonas aeruginosa): stained only viable | fluorescence of stained viable bacteria compared with 5-CFDA [1]: brighter fluorescence than 5-CFDA stained bacteria | staining of viable versus dead bacteria [1]: stained only viable | fluorescence of stained viable bacteria compared with 5-CFDA (Enterobacter cloacae): brighter fluorescence than 5-CFDA stained bacteria | staining of viable versus dead bacteria (Enterobacter cloacae): stained only viable | staining of viable versus dead bacteria [2]: stained only viable | fluorescence intensity of viable E. coli captured on beads compared with 5-CFDA (E. coli (EC18)): still higher than the fluorescence intensity of E. coli stained with 5-CFDA | chemical stability in aqueous solution (in words) [3]: greater chemical stability in aqueous solution; also recorded: much more stable in aqueous solution | relative speed of spontaneous fluorescence generation (spontaneous hydrolysis) [3]: almost four times slower

CCCNC(=O)c1ccc2c(c1)C(=O)OC21c2cc(F)c(OC(C)=O)cc2Oc2cc(OC(C)=O)c(F)cc21 [Example 5-POGDA, 2',7'-difluoro-3-oxo-5-(propylcarbamoyl)-3H-spiro[isobenzofuran-1,9'-xanthene]-3',6'-diyl diacetate]
fluorescence of stained viable bacteria compared with 5-CFDA (Pseudomonas aeruginosa): brighter fluorescence than 5-CFDA stained bacteria | staining of viable versus dead bacteria (Pseudomonas aeruginosa): stained only viable | fluorescence of stained viable bacteria compared with 5-CFDA [1]: brighter fluorescence than 5-CFDA stained bacteria | staining of viable versus dead bacteria [1]: stained only viable | fluorescence of stained viable bacteria compared with 5-CFDA (Enterobacter cloacae): brighter fluorescence than 5-CFDA stained bacteria | staining of viable versus dead bacteria (Enterobacter cloacae): stained only viable | staining of viable versus dead bacteria [2]: stained only viable | fluorescence intensity of viable E. coli captured on beads compared with 5-CFDA (E. coli (EC18)): still higher than the fluorescence intensity of E. coli stained with 5-CFDA | chemical stability in aqueous solution (in words) [3]: less stable | relative speed of spontaneous fluorescence generation (spontaneous hydrolysis) [3]: almost six times higher
